According to article PMC12775434, “Ultra-large virtual screening unveils potent agonists of the neuromodulatory orphan receptor GPR139” (Nature Communications, 2025):
“And” between values parts separate entries of the source, which are not always exact repeats. Identical values can stand only once.

What was measured:
Assay type in all cases: cell-based
[1] = target: T1, human muscarinic acetylcholine M1 receptor (M1R) (Homo sapiens, UniProt P11229); assay: Ca2+ mobilization counter-screen in M1R-CHOk1 cells; settings: individual replicates (Supplementary Figure 2);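 also: 10 µM test compound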
T1 sequence (P11229 1-460): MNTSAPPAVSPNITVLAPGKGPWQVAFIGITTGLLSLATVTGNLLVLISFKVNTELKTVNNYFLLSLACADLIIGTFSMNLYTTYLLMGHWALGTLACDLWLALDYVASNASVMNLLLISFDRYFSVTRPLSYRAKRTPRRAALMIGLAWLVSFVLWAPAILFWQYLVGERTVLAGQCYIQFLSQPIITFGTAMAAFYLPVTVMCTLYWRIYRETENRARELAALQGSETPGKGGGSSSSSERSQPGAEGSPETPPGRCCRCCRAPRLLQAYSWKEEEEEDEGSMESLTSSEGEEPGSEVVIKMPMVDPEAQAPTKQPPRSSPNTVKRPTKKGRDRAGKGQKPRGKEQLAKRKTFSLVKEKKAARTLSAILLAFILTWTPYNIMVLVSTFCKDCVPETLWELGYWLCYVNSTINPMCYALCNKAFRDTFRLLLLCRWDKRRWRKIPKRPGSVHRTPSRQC
Method in brief: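 Counter-screen used CHO-K1 cells stably carrying human M1R, Fluo-4 AM-loaded (2 µM, 1 h, 37 °C). Calcium signal measured at 485/525 nm after compound addition.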

[2] = target: T2, GPR139 (Homo sapiens, UniProt Q6DWJ6); assay: Ca2+ mobilization assay, antagonist mode (EC80 800 nM Lundbeck Cmp 1a after 20 min preincubation), GPR139-CHOk1; settings: individual replicates (Supplementary Figure 1)
T2 sequence (Q6DWJ6 1-353): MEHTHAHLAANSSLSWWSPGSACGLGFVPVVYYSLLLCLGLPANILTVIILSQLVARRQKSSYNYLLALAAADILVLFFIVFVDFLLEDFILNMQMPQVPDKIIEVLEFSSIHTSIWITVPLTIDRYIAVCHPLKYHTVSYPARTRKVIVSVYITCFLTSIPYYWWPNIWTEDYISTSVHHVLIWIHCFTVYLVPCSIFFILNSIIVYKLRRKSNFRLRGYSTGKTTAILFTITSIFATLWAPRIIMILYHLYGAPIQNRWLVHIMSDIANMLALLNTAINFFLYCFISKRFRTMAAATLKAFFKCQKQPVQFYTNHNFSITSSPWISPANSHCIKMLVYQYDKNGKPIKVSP
Method in brief: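 Antagonist mode: 800 nM (EC80) reference agonist Lundbeck Cmp 1a added following 20 min pre-incubation with 10 µM compound. GPR139-CHOk1 cells, Fluo-4 dye, probenecid-containing HEPES buffer pH 7.4; intracellular Ca2+ measured at 37 °C (ex 485, em 525 nm).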

[3] = target: T2, GPR139; assay: Ca2+ mobilization assay, agonist mode, stable GPR139-CHOk1 cell line
Method in brief: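 Agonist activity of compounds is assessed in stably transfected CHO-K1 cells using the calcium dye Fluo-4 at 37 °C in HEPES-buffered HBSS (pH 7.4). Efficacy is expressed relative to the reference agonist Lundbeck Cmp 1a, set as 100%.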

[4] = 0.1 µM, individual replicates (Supplementary Figure 3)
[5] = 1 µM, individual replicates (Supplementary Figure 3)
[6] = 10 µM, individual replicates (Supplementary Figure 3)
[7] = Agonist mode, individual replicates (Supplementary Figure 1)

CC(NC(=O)C1CCN(c2cccc(Cl)c2)C1=O)c1ccsc1 (stereo not shown) [Compound 12, CC(NC(=O)C1CCN(C1=O)C=2C=CC=C(Cl)C2)C=3C=CSC3]
Ca2+ signal (% of Carbachol) [1]: -6.54 % of Carbachol and -0.0404 % of Carbachol
Ca2+ signal (% of Cmp 1a) [2]: 56.3731 % of Cmp 1a and 71.421 % of Cmp 1a and 56.1991 % of Cmp 1a
Ca2+ signal (% of Cmp 1a) [3, 4]: -2.8 % of Cmp 1a and 0.3 % of Cmp 1a
Ca2+ signal (% of Cmp 1a) [3, 5]: -0.458 % of Cmp 1a and 0.235 % of Cmp 1a
Ca2+ signal (% of Cmp 1a) [3, 6]: 12.7 % of Cmp 1a and 12.3 % of Cmp 1a
Ca2+ signal (% of Cmp 1a) [3, 7]: 45 % of Cmp 1a and 20 % of Cmp 1a and 39 % of Cmp 1a

O=C(NC1CC12CCCC2)C1CCCN(c2ccccc2)C1=O (stereo not shown) [Compound 13, O=C(NC1CC21CCCC2)C3CCCN(C3=O)C=4C=CC=CC4]
Ca2+ signal (% of Carbachol) [1]: -12 % of Carbachol and -1.24 % of Carbachol
Ca2+ signal (% of Cmp 1a) [2]: 67.15 % of Cmp 1a and 66.5231 % of Cmp 1a and 65.9874 % of Cmp 1a
Ca2+ signal (% of Cmp 1a) [3, 4]: -0.35 % of Cmp 1a and -3.4 % of Cmp 1a
Ca2+ signal (% of Cmp 1a) [3, 5]: 5.0 % of Cmp 1a and -6.6 % of Cmp 1a
Ca2+ signal (% of Cmp 1a) [3, 6]: 18.4 % of Cmp 1a and -6.0 % of Cmp 1a
Ca2+ signal (% of Cmp 1a) [3, 7]: 47 % of Cmp 1a and 33 % of Cmp 1a and 40 % of Cmp 1a
Ca2+ signal (% of Cmp 1a) ([3]; primary screen, 10 µM compound, agonist mode, three columns = independent experiments): 47 % of Cmp 1a and 33 % of Cmp 1a and 40 % of Cmp 1a
